From ChEMBL document CHEMBL5346978, “Exploration of Tetrahydroisoquinoline- and Benzo[c]azepine-Based Sphingosine 1-Phosphate Receptor 1 Agonists for the Treatment of Multiple Sclerosis” (J Med Chem, 2023)

Key:
[1] = biological target: T1, Sphingosine 1-phosphate receptor 1 (Homo sapiens, UniProt P21453); experiment: Agonist activity at S1P1 (unknown origin) expressed in human HEK293/Galpha15 cells assessed as Ca2+ activation at 1 uM measured for 2 hrs by FLIPR analysis relative to control; assay type: functional, cell-based
T1 sequence (P21453 whole entry): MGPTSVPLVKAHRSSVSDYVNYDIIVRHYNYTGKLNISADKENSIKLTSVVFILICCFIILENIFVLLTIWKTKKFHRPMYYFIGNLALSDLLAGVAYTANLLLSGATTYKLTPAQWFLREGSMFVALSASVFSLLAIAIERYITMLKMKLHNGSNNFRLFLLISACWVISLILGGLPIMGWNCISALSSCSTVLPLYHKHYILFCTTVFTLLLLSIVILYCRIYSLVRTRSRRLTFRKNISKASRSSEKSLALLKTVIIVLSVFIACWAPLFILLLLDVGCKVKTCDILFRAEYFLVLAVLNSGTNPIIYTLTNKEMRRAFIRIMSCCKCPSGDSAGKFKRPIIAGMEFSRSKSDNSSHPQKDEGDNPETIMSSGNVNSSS

[2] = biological target: T1, Sphingosine 1-phosphate receptor 1; experiment: Agonist activity at S1P1 (unknown origin) expressed in human HEK293/Galpha15 cells assessed as Ca2+ activation measured for 2 hrs by FLIPR analysis; assay type: functional, cell-based
[3] = biological target: T1, Sphingosine 1-phosphate receptor 1; experiment: Agonist activity at S1P1 (unknown origin) expressed in PathHunter CHO-K1 EDG1 beta-arrestin cells assessed as beta-arrestin2 recruitment at 1 uM incubated for 90 mins by chemiluminescence based assay relative to control; assay type: functional, cell-based
[4] = biological target: T1, Sphingosine 1-phosphate receptor 1; experiment: Agonist activity at S1P1 (unknown origin) expressed in PathHunter CHO-K1 EDG1 beta-arrestin cells assessed as beta-arrestin2 recruitment incubated for 90 mins by chemiluminescence based assay; assay type: functional, cell-based
[5] = Microsomal stability in human liver microsomes assessed as parent compound remaining preincubated for 5 mins followed by NADPH addition measured after 30 mins by LC-MS/MS analysis; assay type: ADME, Microsome; details: time 35 min, read-out: Stability
[6] = Microsomal stability in mouse liver microsomes assessed as parent compound remaining preincubated for 5 mins followed by NADPH addition measured after 30 mins by LC-MS/MS analysis; assay type: ADME, Microsome; details: time 35 min, read-out: Stability

Structure (SMILES)	Activity ([3]; filed as agonist)	EC50 [4]	Activity [1]	Activity [3]	other results
CC(C)Oc1ccc(COc2ccc3c(c2)CCN(C(=O)CCC(N)=O)C3)cc1C#N	91%	109 nM			Activity ([1]; filed as agonist): 47%; EC50 [2]: 2260 nM
CC(C)Oc1ccc(COc2ccc3c(c2)OCCN(CCC(=O)O)C3)cc1C#N			14%	24%	
CC(C)Oc1ccc(COc2ccc3c(c2)CCN(CCC(=O)O)C3C)cc1C#N (configuration not stated)	74%	105 nM			Activity ([1]; filed as agonist): 69%; EC50 [2]: 524 nM
CC(C)Oc1ccc(COc2ccc3c(c2)CCN(CCO)C3)cc1C#N			7%	32%	
CC(C)Oc1ccc(COc2ccc3c(c2)CCN(CCCCO)C3)cc1C#N			3%	24%	
CC(C)Oc1ccc(COc2ccc3c(c2)CCN(C(=O)CCO)C3)cc1C#N	88%	184 nM	36%		
CC(C)Oc1ccc(COc2ccc3c(c2)CCN(CC(=O)O)C3)cc1C#N	67%	695 nM			Activity ([1]; filed as agonist): 56%; EC50 [2]: 1.06 nM
CC(=O)NCCC(=O)N1CCc2cc(OCc3ccc(OC(C)C)c(C#N)c3)ccc2C1	117%	276 nM			Activity ([1]; filed as agonist): 41%; EC50 [2]: 1720 nM; remaining at 0.5 h [5]: 29.7%; remaining at 0.5 h [6]: 14.9%
CC(C)Oc1ccc(COc2cccc3c2CCN(S(=O)(=O)CCCO)C3)cc1C#N			3%	1%	
CC(C)Oc1ccc(COc2ccc3c(c2)CN(CCC(=O)O)CCC3)cc1C#N			13%	6%	
CC(C)Oc1ccc(COc2ccc3c(c2)CN(CCC(=O)O)CC3)cc1C#N			1%	2%	
CC(C)Oc1ccc(COc2cccc3c2CCN(CCC(=O)O)C3)cc1C#N			6%	2%	
CC(C)Oc1ccc(COc2ccc3c(c2)CCN(C(C)C(=O)O)C3)cc1C#N (configuration not stated)			10%	18%	
CC(C)Oc1ccc(COc2ccc3c(c2)CCN(C(=O)CCC(=O)O)C3C)cc1C#N (configuration not stated)	40%				Activity ([1]; filed as agonist): 57%; EC50 [2]: 951 nM
CC(C)Oc1ccc(COc2ccc3c(c2)CCN(C(=O)CC(=O)O)C3)cc1C#N	42%				Activity ([1]; filed as agonist): 64%; EC50 [2]: 788 nM
CC(C)Oc1ccc(COc2ccc3c(c2)CCN(S(=O)(=O)CCCO)C3C)cc1C#N (configuration not stated)	45%		12%		
CC(C)Oc1ccc(COc2ccc3c(c2)CCCN(CCC(=O)O)C3)cc1C#N			3%	2%	
CC(C)Oc1ccc(COc2ccc3c(c2)CCN(CCCC(=O)O)C3)cc1C#N	91%	98.2 nM			Activity ([1]; filed as agonist): 79%; EC50 [2]: 97.1 nM
CNC(=O)CCC(=O)N1CCc2cc(OCc3ccc(OC(C)C)c(C#N)c3)ccc2C1	82%	1470 nM	39%		
CC(=O)NCCCC(=O)N1CCc2cc(OCc3ccc(OC(C)C)c(C#N)c3)ccc2C1	105%	424 nM			Activity ([1]; filed as agonist): 55%; EC50 [2]: 1260 nM
CC(C)Oc1ccc(COc2ccc3c(c2)CCN(CCCO)C3)cc1C#N			5%	30%	
CC(C)Oc1ccc(COc2ccc3c(c2)CCCN3S(=O)(=O)CCCO)cc1C#N			3%	35%	
CC(C)Oc1ccc(COc2ccc3c(n2)CCN(C(=O)CCC(=O)O)C3)cc1C#N			14%	26%	
CC(C)Oc1ccc(COc2ccc3c(c2)CCN(S(=O)(=O)CC(=O)O)C3C)cc1C#N (configuration not stated)			21%	17%	

Second part, led by results:

Activity ([3]; filed as agonist)	EC50 [4]	Activity [1]	Activity [3]	Structure (SMILES)	other results
		13%	32%	COC(=O)CN1CCc2cc(OCc3ccc(OC(C)C)c(C#N)c3)ccc2C1	
		13%	26%	COC(=O)CCS(=O)(=O)N1CCc2cc(NCc3ccc(OC(C)C)c(C#N)c3)ccc2C1	
92%	162 nM			CC(C)Oc1ccc(COc2ccc3c(c2)CCN(S(=O)(=O)CC(=O)O)C3)cc1C#N	Activity ([1]; filed as agonist): 85%; EC50 [2]: 89 nM
		8%	0%	CC(C)Oc1ccc(COc2ccc3c(c2)CN(S(=O)(=O)CCC(=O)O)CCC3)cc1C#N	
		3%	7%	CC(C)Oc1ccc(COc2ccc3c(c2)CN(S(=O)(=O)CCCO)CC3)cc1C#N	
		8%	9%	CC(C)Oc1ccc(CN(C)c2ccc3c(c2)CCN(S(=O)(=O)CCC(=O)O)C3)cc1C#N	
88%	191 nM			CC(C)Oc1ccc(COc2ccc3c(c2)CCN(S(=O)(=O)CCO)C3)cc1C#N	Activity ([1]; filed as agonist): 44%
		7%	7%	COC(=O)CCS(=O)(=O)N1CCc2cc(NC(=O)c3ccc(OC(C)C)c(C#N)c3)ccc2C1	
		12%	5%	COC(=O)CCS(=O)(=O)N1CCc2cc(N(C)Cc3ccc(OC(C)C)c(C#N)c3)ccc2C1	
89%	279 nM	6%		COC(=O)CS(=O)(=O)N1CCc2cc(OCc3ccc(OC(C)C)c(C#N)c3)ccc2C1	
96%	22.3 nM			CC(C)Oc1ccc(COc2ccc3c(c2)OCCN(S(=O)(=O)CCO)C3)cc1C#N	Activity ([1]; filed as agonist): 65%; EC50 [2]: 674 nM
		18%	15%	CC(C)Oc1ccc(C(=O)Nc2ccc3c(c2)CCN(S(=O)(=O)CCC(=O)O)C3)cc1C#N	
		4%	1%	CC(C)Oc1ccc(COc2cccc3c2CCN(S(=O)(=O)CCC(=O)O)C3)cc1C#N	
72%	496 nM	6%		CC(C)Oc1ccc(COc2ccc3c(c2)CCN(S(=O)(=O)CCCO)C3)cc1C#N	
91%	331 nM			COC(=O)CCN1CCc2cc(OCc3ccc(OC(C)C)c(C#N)c3)ccc2C1	Activity ([1]; filed as agonist): 40%
91%	154 nM	7%		COC(=O)CCCN1CCc2cc(OCc3ccc(OC(C)C)c(C#N)c3)ccc2C1	
118%	346 nM	10%		CC(C)Oc1ccc(COc2ccc3c(n2)CCN(S(=O)(=O)CCCO)C3)cc1C#N	
		5%	3%	COC(=O)CCS(=O)(=O)N1CCc2cc(Nc3ccc(OC(C)C)c(C#N)c3)ccc2C1	
103%	59.9 nM	9%		COC(=O)CCS(=O)(=O)N1CCc2cc(OCc3ccc(OC(C)C)c(C#N)c3)ccc2C1	
68%	743 nM	6%		CC(C)Oc1ccc(COc2ccc3c(c2)CCN(C(=O)CCCNS(C)(=O)=O)C3)cc1C#N	
		9%	25%	CC(C)Oc1ccc(COc2ccc3c(c2)CCN(S(=O)(=O)CCC(=O)O)CC3)cc1C#N	
		3%	4%	CC(C)Oc1ccc(COc2ccc3c(c2)CN(S(=O)(=O)CCC(=O)O)CC3)cc1C#N	
